These results are taken from US7368130B2, “Microparticles” (The Board of Trustees of the University of Illinois, priority 2000, dated 2008).

The structures appear in SMILES notation. “Also recorded” adds a separate entry of the source.

Series [1] in a line: Release of rhodamine B from PLGA microspheres during incubation in PBS. To be noted: 37° C. In kind it is physicochemical. As for the experimental part: (§1) The rhodamine B, in its free base form, was dissolved in PLGA/ethyl acetate solutions at theoretical loadings of 1, 3 and 5%(mass drug/mass polymer). Microspheres of uniform 35, 50 and 65 μm diameters were fabricated, hardened and collected using the procedures described in the above examples. The presence of rhodamine had no observable effect on particle uniformity. Encapsulation of rhodamine (˜70% efficiency) was confirmed by fluorescence microscopy (FIG. 6, right). The rhodamine B is released from the spheres over the course of 7-10 days of incubation in PBS and 37° C.

Series [2] can be described thus: Encapsulation of rhodamine B in PLGA microspheres, confirmed by fluorescence microscopy. To be noted: PLGA microspheres from PLGA/ethyl acetate solution, theoretical loadings 1, 3 and 5%. In kind it is physicochemical. As for the experimental part:
as §1

`CCN(CC)c1ccc2c(-c3ccccc3C(=O)O)c3ccc(=[N+](CC)CC)cc-3oc2c1` [rhodamine B]: the “time over which rhodamine B is released from the spheres” value in series [1] (PLGA microspheres of uniform 35, 50 and 65 μm diameters, theoretical loadings 1, 3 and 5% (mass drug/mass polymer), incubation in PBS) was 7 to 10 days. In addition, the release rate result in series [1] (dependence on sphere size and drug loading, PLGA microspheres in PBS) is “faster when spheres were smaller (not shown) or contained more drug; also recorded: faster when spheres contained more drug”. This molecule also yielded an encapsulation efficiency in series [2] of roughly 70%.
